Measured values as given in patent publication US7612089B2, “Tetrahydroisoquinolines as factor Xa inhibitors” (Portola Pharmaceuticals, Inc., priority 2004, dated 2009).

Target: T1, human plasma protein factor Xa (Homo sapiens, UniProt P00742)
T1 construct: The human plasma protein factor Xa was purchased; purchased Haematologic Technologies (Essex Junction, Vt.); host or cells: human plasma
Assay: Factor Xa IC50 determination (cleavage of paranitroanilide substrate S-2765)
Type: biochemical
Details: fXa 1 nM, S2765 100 μM, Tris buffered saline pH 7.4, room temperature
Excerpt: This example illustrates methods for evaluating the compounds of the invention, along with results obtained for such assays. The in vitro and in vivo Factor Xa isoform activities of the inventive compounds can be determined by various procedures known in the art, such as a test for their ability to inhibit the activity of the Factor Xa isoform. […] The IC50 value is the concentration (in nM) of the compound required to provide 50% inhibition of Factor Xa isoform.
An in vitro assay for detecting and measuring inhibition activity against Factor Xa is as follows:
IC50 and Ki Determinations:
The substrate S-2765 (Z-D-Arg-Gly-Arg-pNA.HCl) was obtained from Diapharma (West Chester, Ohio).
The human plasma protein factor Xa was purchased from Haematologic Technologies (Essex Junction, Vt.).
All assays, which are performed in 96-well microtiter plates, measure proteolytic activity of the enzyme (factor Xa) by following cleavage of paranitroanilide substrate. The assay buffer used for proteolytic assays was Tris buffered saline (20 mM Tris, 150 mM NaCl, 5 mM CaCl2, 0.1% Bovine serum albumin (BSA), 5% Dimethly Sulfoxide (DMSO) pH 7.4). In a 96-well microtiter plate, inhibitor was serially diluted to give a range of concentrations from 0.01 nM to 10 μM (final). Duplicate sets of wells were assayed and control wells without inhibitor were included. Enzyme was added to each well, (fXa concentration=1 nM), the plate was shaken for 5 seconds and then incubated for 5 minutes at room temperature. S2765 was added (100 μM final) and the plate was shaken for 5 seconds (final liquid volume in each well was 200 μl). The degree of substrate hydrolysis was measured at 405 nm on a Thermomax plate reader (Molecular Devices, Sunnyvale, Calif.) for 2 minutes. The initial velocities (mOD/min), for each range of inhibitor concentrations, were fitted to a four parameter equation using Softmax data analysis software. The parameter C, derived from the resulting curve-fit, corresponded to the concentration for half maximal inhibition (IC50).

T1 sequence (P00742 235-488 limits assumed): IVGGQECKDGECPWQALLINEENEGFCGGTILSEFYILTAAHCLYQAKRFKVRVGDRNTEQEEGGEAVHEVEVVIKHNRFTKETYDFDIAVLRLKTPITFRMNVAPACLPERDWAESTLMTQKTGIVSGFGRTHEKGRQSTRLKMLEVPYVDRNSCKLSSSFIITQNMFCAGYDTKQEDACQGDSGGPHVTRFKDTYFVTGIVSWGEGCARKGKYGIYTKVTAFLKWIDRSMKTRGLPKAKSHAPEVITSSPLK
T1 sequence (P00742 41-179 partner limits assumed): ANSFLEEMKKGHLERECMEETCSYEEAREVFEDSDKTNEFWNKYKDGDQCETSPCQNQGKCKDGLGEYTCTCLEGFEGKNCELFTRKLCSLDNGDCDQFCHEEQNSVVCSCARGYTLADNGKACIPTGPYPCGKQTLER

Compound	IC50 [nM]
COc1cc2c(cc1OC)CN(C(=O)Nc1ccc(Cl)cc1)[C@H](C(=O)Nc1ccc(C3=NCCN3C)cc1)C2 [Example 21, (3S)-N-[4-(1-methyl-4,5-dihydro-1H-imidazol-2-yl)phenyl]-2N-(4-chlorophenylaminocarbonyl)-6,7-dimethoxy-1,2,3,4-tetrahydroisoquinoline-3-carboxamide]	≥ 500
CN1CCCN(c2ccc(NC(=O)C3c4ccccc4CN3C(=O)Nc3ccc(Cl)cc3)cc2)CC1 (stereo not shown) [Example 30, N-[4-(4-methyl-homopiperazinyl)phenyl]-2N-(4-chlorophenylaminocarbonyl)-2,3-dihydro-1H-isoindole-1-carboxamide]	100 to 500
O=C(NCC1CCN(c2ccncc2)CC1)C1Cc2ccccc2CN1C(=O)Nc1ccc(Cl)cc1 (stereo not shown) [Example 9, N-[1-(pyridin-4-yl)piperidin-4-yl]methyl-2N-(4-chlorophenylaminocarbonyl)-1,2,3,4-tetrahydroisoquinoline-3-carboxamide]	100 to 500
Cc1cccc2c1CC(C(=O)Nc1ccc(C(=N)N3CCCC3)cc1)N(C(=O)Nc1ccc(Cl)cc1)C2 (stereo not shown) [Example 19, N-[4-(pyrrolidinylimino)phenyl]-2N-(4-chlorophenylaminocarbonyl)-5-methyl-1,2,3,4-tetrahydroisoquinoline-3-carboxamide]	≤ 100
O=C(Nc1ccc(N2CCOCC2=O)cc1)C1Cc2ccccc2CN1C(=O)Nc1ccc(Cl)cc1 (stereo not shown) [Example 14, N-[4-(3-oxo-morpholin-4-yl)phenyl]-2N-(4-chlorophenylaminocarbonyl)-1,2,3,4-tetrahydroisoquinoline-3-carboxamide]	≤ 100
CN(C)C(=N)c1cccc(CNC(=O)C2Cc3ccccc3CN2C(=O)Nc2ccc(Cl)cc2)c1 (stereo not shown) [Example 6, N-[3-(dimethylaminoimino)benzyl]-2N-(4-chlorophenylaminocarbonyl)-1,2,3,4-tetrahydroisoquinoline-3-carboxamide]	≥ 500
COc1cc2c(cc1OC)CN(C(=O)Nc1ccc(Cl)cc1)[C@H](C(=O)Nc1ccc(C(=N)N3CCCC3)cc1)C2 [Example 22, (3S)-N-[4-(pyrrolidinylimino)phenyl]-2N-(4-chlorophenylaminocarbonyl)-6,7-dimethoxy-1,2,3,4-tetrahydroisoquinoline-3-carboxamide]	100 to 500
CN1CCN=C1c1ccc(NC(=O)[C@H]2Cc3ccccc3CN2C(=O)Nc2ccc(Cl)cc2)cc1 [3(R), (3R)-N-[4-(1-methyl-4,5-dihydro-1H-imidazol-2-yl)phenyl]-2N-(4-chlorophenylaminocarbonyl)-1,2,3,4-tetrahydroisoquinoline-3-carboxamide]	≤ 100
CN1CCCN(c2ccc(NC(=O)[C@H]3Cc4ccccc4CN3C(=O)Nc3ccc(Cl)cc3)cc2)C(=O)C1 [Example 46, (3R) N-[4-(4-methyl-2-homopiperazinon-1-yl)phenyl]-2N-(4-chlorophenylaminocarbonyl)-1,2,3,4-tetrahydroisoquinoline-3-carboxamide]	≤ 100
CN1CCN=C1c1cccc(CNC(=O)C2Cc3ccccc3CN2C(=O)Nc2ccc(Cl)cc2)c1 (stereo not shown) [Example 7, N-[3-(1-methyl-4,5-dihydro-1H-imidazol-2-yl)benzyl]-2N-(4-chlorophenylaminocarbonyl)-1,2,3,4-tetrahydroisoquinoline-3-carboxamide]	≥ 500
O=C(Nc1ccc(-n2ccccc2=O)cc1)[C@H]1Cc2ccccc2CN1C(=O)Nc1ccc(F)cc1 [Example 47, (3R) N-[4-(2-pyridon-1-yl)phenyl]-2N-(4-fluorophenylaminocarbonyl)-1,2,3,4-tetrahydroisoquinoline-3-carboxamide]	≤ 100
CN1CCCN(c2ccc(NC(=O)C3Cc4ccccc4CN3C(=O)Nc3ccc(Cl)cc3)cc2)CC1 (stereo not shown) [Example 10, N-[4-(4-methyl-homopiperazinyl)]phenyl-2N-(4-chlorophenylaminocarbonyl)-1,2,3,4-tetrahydroisoquinoline-3-carboxamide]	≤ 100
O=C(Nc1ccc(-c2cccc[n+]2[O-])cc1)C1c2ccccc2CN1C(=O)Nc1ccc(Cl)cc1 (stereo not shown) [Example 29, N-[4-(1N-oxo-pyridin-2-yl)phenyl]-2N-(4-chlorophenylaminocarbonyl)-2,3-dihydro-1H-isoindole-1-carboxamide]	≤ 100
O=C([C@H]1Cc2ccccc2CN1C(=O)Nc1ccc(Cl)cc1)N1CCC(n2ccccc2=O)CC1 [Example 43, (3R) 4-(2-pyridon-1-yl)piperidin-1-yl 2N-(4-chlorophenylaminocarbonyl)-1,2,3,4-tetrahydroisoquinoline-3-carboxamide]	≤ 100

The remaining lines, values ahead:

IC50 [nM]	Compound
≤ 100	CN1CCCN(c2ccc(NC(=O)C3Cc4sccc4CN3C(=O)Nc3ccc(Cl)cc3)cc2)CC1 (stereo not shown) [Example 27, N-[4-(4-methyl-homopiperazinyl)]phenyl-5N-(4-chlorophenylaminocarbonyl)-4,5,6,7-tetrahydro-thieno[3,2-c]pyridine-6-carboxamide]
≤ 100	CN1CCCN(c2ccc(NC(=O)[C@H]3Cc4ccccc4CN3C(=O)Nc3ccc(Cl)cc3)c(F)c2)CC1 [Example 35, (3R) N-[4-(4-methyl-homopiperazinyl)-2-fluorophenyl]-2N-(4-chlorophenylaminocarbonyl)-1,2,3,4-tetrahydroisoquinoline-3-carboxamide]
≤ 100	O=C(Nc1ccc(-n2ccccc2=O)cc1F)[C@H]1Cc2ccccc2CN1C(=O)Nc1ccc(Cl)cc1 [Example 38, (3R) N-[4-(2-pyridon-1-yl)-2-fluorophenyl]-2N-(4-chlorophenylaminocarbonyl)-1,2,3,4-tetrahydroisoquinoline-3-carboxamide]
≤ 100	O=C(Nc1ccc(-n2ccccc2=S)cc1)C1Cc2cc(O)ccc2CN1C(=O)Nc1ccc(Cl)cc1 (stereo not shown) [Example 41, N-[4-(2-thiopyridon-1-yl)phenyl]-2N-(4-chlorophenylaminocarbonyl)-6-hydroxy-1,2,3,4-tetrahydroisoquinoline-3-carboxamide]
≤ 100	CN1CCCN(c2ccc(NC(=O)[C@H]3Cc4ccccc4CN3C(=O)Nc3ccc(Cl)cc3)cc2)CC1 [Example 33, (3R) N-[4-(4-methyl-homopiperazinyl)]phenyl-2N-(4-chlorophenylaminocarbonyl)-1,2,3,4-tetrahydroisoquinoline-3-carboxamide]
≤ 100	O=C(Nc1ccc(-n2ccccc2=O)cc1)C1Cc2cc(O)ccc2CN1C(=O)Nc1ccc(Cl)cc1 (stereo not shown) [Example 39, N-[4-(2-pyridon-1-yl)phenyl]-2N-(4-chlorophenylaminocarbonyl)-6-hydroxy-1,2,3,4-tetrahydroisoquinoline-3-carboxamide]
≤ 100	CN1CCN=C1c1ccc(NC(=O)[C@@H]2Cc3ccccc3CN2C(=O)Nc2ccc(Cl)cc2)cc1 [3(S), (3S)-N-[4-(1-methyl-4,5-dihydro-1H-imidazol-2-yl)phenyl]-2N-(4-chlorophenylaminocarbonyl)-1,2,3,4-tetrahydroisoquinoline-3-carboxamide]
≤ 100	CN1CCN=C1c1ccc(NC(=O)C2Cc3sccc3CN2C(=O)Nc2ccc(Cl)cc2)cc1 (stereo not shown) [Example 25, N-[4-(1-methyl-4,5-dihydro-1H-imidazol-2-yl)phenyl]-5N-(4-chlorophenylaminocarbonyl)-4,5,6,7-tetrahydro-thieno[3,2-c]pyridine-6-carboxamide]
